Test results published in patent US9540351B2, “Pharmaceutically acceptable salts of 3,5-diaminopyrazole kinase inhibitors” (AXIKIN PHARMACEUTICALS, INC., priority 2013, dated 2017).
Like-named read-outs stand apart in the source and are kept apart here.

What was measured:
[1] = Solubility assessment of salts in water; assay type: physicochemical; conditions: thermodynamic from solid, read-out: Aqueous Solubility
Method: Solubility assessment: A preweighed amount of powder of a salt was treated with water to target a nominal concentration of 10 mg/mL. If a clear solution was obtained, then the solubility was noted as ≧10 mg/mL. If a suspension was obtained, additional water was added to target a nominal concentration of 5 mg/mL. If still a suspension after the addition of water, additional water was added to target a lower nominal concentration. If a suspension was still observed at a nominal concentration of 0.1 mg/mL, the suspension was filtered through a 0.4 micron filter, and the filtrate was analyzed by RP-HPLC to ascertain the solubility range of the salt.

[2] = target: T1, kinase domain protein of RC kinase (Homo sapiens, UniProt Q56UN5); test: Enzymatic assay for kinase inhibitory activity (Crebtide substrate, Lance readout); assay type: biochemical; conditions: free base compounds, inhibition of RC kinase activity at 1 μM
T1 sequence (Q56UN5 1061-1324 limits assumed): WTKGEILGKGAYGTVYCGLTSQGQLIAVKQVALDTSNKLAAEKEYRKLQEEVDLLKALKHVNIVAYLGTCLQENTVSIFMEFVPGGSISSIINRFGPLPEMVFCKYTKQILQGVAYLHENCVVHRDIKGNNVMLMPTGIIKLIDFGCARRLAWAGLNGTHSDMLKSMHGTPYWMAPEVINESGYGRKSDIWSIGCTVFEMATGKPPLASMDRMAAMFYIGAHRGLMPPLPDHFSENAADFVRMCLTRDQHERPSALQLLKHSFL
Method: Solutions of a test compound, Crebtide (a substrate), a kinase, and ATP were prepared using 1×MAPK Buffer (50 mM HEPES, 1 mM EGTA, […], 10 mM MgCl2, 2 mM DTT, and 0.01% Tween 20).
To each well, the test compound (1 μL) was first added (in duplicate) to reach a final concentration of 1 μM or 1×IC50 of the compound. The kinase (5 μL) was then added to each well to reach a final concentration of […] for the kinase domain or […] for the full-length domain. Each plate included a positive and negative controls in duplicate wells. Crebtide (2.5 μL) was then added to each well in duplicate to reach a final concentration of 50 nM. If the full-length kinase was used, the plates were incubated for 45 min at room temperature before proceeding further. ATP (2.5 μL) was added to each well to reach a final concentration of 1 μM for the kinase domain and 3 μM for the full-length.
After the addition of ATP, the plates were incubated for 45 min at room temperature. During the incubation, an EDTA solution (40 mM) and anti-Crebtide ([…]) were prepared. Additionally, a detection buffer stock solution was diluted ten fold before use.
After the incubation, the anti-Crebtide (5 μL) and EDTA (5 μL) were added to each well to reach their final concentrations of […] and 10 mM, respectively. The plates were allowed to develop at room temperature for 45 min. The plates were then read at 665 nm and 615 nm using Perkin Elmer Lance machine.
As will be appreciated by those skilled in the are, the activity of a particular salt provided herein will be the same as the activity for the parent free-base compound.

Row | SMILES | solubility ([1]; Free base) | solubility ([1]; HBr salt) | solubility ([1]; HCl salt) | solubility ([1]; Phosphoric acid salt) | solubility ([1]; Sulfuric acid salt) | solubility ([1]; Trifluoroacetic acid salt) | solubility ([1]; acetic acid salt) | solubility ([1]; camphorsulfonic acid salt) | solubility ([1]; formic acid salt) | inhibition at 1 µM [2] | solubility ([1]; Methane sulfonic acid salt) | solubility ([1]; p-toluenesulfonic acid salt) | solubility ([1]; tartaric acid salt)
1 | NC(=O)c1c(Nc2ccc(N3CCOCC3)cc2)n[nH]c1NCc1ccc(O)cc1 [Compound 4, 5-((4-hydroxybenzyl)amino)-3-((4-morpholinophenyl)amino)-3H-pyrazole-4-carboxamide] | < 100 µg/mL | > 10000 µg/mL | > 10000 µg/mL | < 200 µg/mL | > 2000 µg/mL | < 200 µg/mL | < 500 µg/mL | < 200 µg/mL | < 500 µg/mL | ≥ 50% |  |  | 
2 | NC(=O)C1=C(NCc2ccc(O)cc2)N=NC1Nc1ccc(CN2CCOCC2)cc1 (stereo not drawn) [Compound 3, 5-((4-hydroxybenzyl)amino)-3-((4-(morpholinomethyl)phenyl)amino)-3H-pyrazole-4-carboxamide] | < 40 µg/mL |  | > 500 µg/mL |  |  |  |  |  |  | ≥ 50% |  |  | 
3 | NC(=O)C1=C(NCc2ccc(O)cc2)N=NC1Nc1ccc(-n2ccnc2)cc1 (stereo not drawn) [Compound 8, 3-((4-(1H-imidazol-1-yl)phenyl)amino)-5-((4-hydroxybenzyl)amino)-3H-pyrazole-4-carboxamide] | < 40 µg/mL |  | > 500 µg/mL | > 1000 µg/mL |  |  |  |  |  | ≥ 50% |  |  | 
4 | NC(=O)C1=C(NCc2ccc(O)cc2)N=NC1Nc1ccc(N2CCOCC2)nc1 (stereo not drawn) [Compound 5, 5-((4-hydroxybenzyl)amino)-3-((6-morpholinopyridin-3-yl)amino)-3H-pyrazole-4-carboxamide] | < 100 µg/mL |  | > 2000 µg/mL | > 100 µg/mL | > 10 µg/mL | > 1000 µg/mL |  |  |  | ≥ 50% | > 10000 µg/mL |  | 
5 | NC(=O)C1=C(NCc2ccc(O)cc2)N=NC1Nc1ccc(-c2ccccn2)cc1 (stereo not drawn) [Compound 6, 5-((4-hydroxybenzyl)amino)-3-((4-(pyridin-2-yl)phenyl)amino)-3H-pyrazole-4-carboxamide] | < 100 µg/mL |  |  | > 20000 µg/mL | < 500 µg/mL | < 500 µg/mL |  | < 500 µg/mL |  | ≥ 50% |  | < 200 µg/mL | < 200 µg/mL
6 | CN1CCN(c2ccc(NC3N=NC(NCc4ccc(O)cc4)=C3C(N)=O)cc2)CC1 (stereo not drawn) [Compound 2, 5-((4-hydroxybenzyl)amino)-3-((4-(4-methylpiperazin-1-yl)phenyl)amino)-3H-pyrazole-4-carboxamide] | < 40 µg/mL |  | > 1000 µg/mL |  |  |  |  |  |  | ≥ 50% |  |  | 
7 | CC(C)N1CCN(c2ccc(Nc3n[nH]c(NCc4ccc(O)cc4)c3C(N)=O)cc2)CC1 [Compound 7, 5-((4-hydroxybenzyl)amino)-3-((4-(4-isopropylpiperazin-1-yl)phenyl)amino)-3H-pyrazole-4-carboxamide] | < 40 µg/mL |  | > 500 µg/mL | > 1000 µg/mL |  |  |  |  |  | ≥ 50% |  |  | 
8 | NC(=O)c1c(Nc2ccc3[nH]ncc3c2)n[nH]c1NCc1ccc(O)cc1 [Compound 9, 3-((1H-indazol-5-yl)amino)-5-((4-hydroxybenzyl)amino)-3H-pyrazole-4-carboxamide] | < 40 µg/mL |  | < 100 µg/mL |  |  |  |  |  |  | ≥ 50% |  |  | 
9 | NC(=O)C1=C(NCc2ccc(O)cc2)N=NC1Nc1cccc(Cl)c1 (stereo not drawn) [Compound 1, 3-((3-chlorophenyl)amino)-5-((4-hydroxybenzyl)amino)-3H-pyrazole-4-carboxamide] | < 40 µg/mL |  | > 63 µg/mL |  |  |  |  |  |  | ≥ 50% |  |  | 
